{"source": "patent US20180296630A1", "about": "“METHODS AND COMPOSITIONS FOR PREVENTING OR TREATING OPHTHALMIC CONDITIONS” (Stealth BioTherapeutics Corp, priority 2012, published 2018)", "key": {"HTM cells": {"tested_on": "HTM cells", "assay": "TMRM fluorescence (mitochondrial membrane potential), acute H2O2 injury, FACS, HTM cells", "format": "cell-based, human", "conditions": "n=4", "text": "(§1) Methods to measure mitochondrial membrane potential using TMRM useful in the studies of the present invention have been described by Andrea Rasola and Massimo Geuna, A flow cytometry assay simultaneously detects independent apoptotic parameters, Cytometry 45:151-157, 2001; Mitoprobe™ JC-1 Kit for Flow Cytometry, Molecular Probes, Invitrogen, USA.\n(§2) The mitochondrial membrane potential (Δψm) of HTM and GTM cells was investigated when those cells were exposed to hydrogen peroxide prior to administration of D-Arg-2′,6′-Dmt-Lys-Phe-NH2. First, the mitochondrial membrane potential was measured using confocal microscopy of cells labeled with tetramethylrhodamine methyl ester (TMRM, 500 nM×30 min) (FIG. 15). The mitochondrial membrane potential was also measured using flow cytometry (FIGS. 16-17) by labeling cells with the mitochondrion-selective probe tetramethylrhodamine methyl ester (TMRM, 500 nM×30 min).\nThe effects of D-Arg-2′,6′-Dmt-Lys-Phe-NH2 at mitigating acute oxidative injury in GTM and HTM cells was investigated. […] The percentage of fluorescence intensity compared to GTM control in H2O2, D-Arg-2′,6′-Dmt-Lys-Phe-NH2 10^−6M, D-Arg-2′,6′-Dmt-Lys-Phe-NH2 10^−7M, D-Arg-2′,6′-Dmt-Lys-Phe-NH2 10^−8M were 35.2±2.12%, 56.2±4.04%, 50.3±4.46%, 47.5±2.82% respectively, n=4; the HTM groups were 37.4±0.725%, 57.7±1.80%, 50.6±3.06%, 49.4±2.27% respectively, n=4. ** means P<0.01 compared to GTM H2O2 group; * means P<0.05 compared to GTM H2O2 group; ▴ ▴ ▴ means P<0.001 compared to HTM H2O2 group."}, "OIR mouse model": {"tested_on": "OIR mouse model", "assay": "Oxygen-induced retinopathy (OIR) mouse model", "format": "in vivo", "text": "In this model, 7-day-old mouse pups with partially developed retinal vasculature were subjected to hyperoxia (75% oxygen) for 5 days, which stops retinal vessel growth and causes significant vaso-obliteration. On postnatal day 12, the pups were returned to room air, and by postnatal day 17, a florid compensatory retinal neovascularization occurred. This model of pathological neovascularization has been widely used as a substitute for proliferative diabetic retinopathy (DR).\nTo examine the effects of the aromatic-cationic peptides of the invention on prevention of OIR, OIR was induced in mouse pups and the mice were simultaneously administered an aromatic-cationic peptide (e.g., Phe-D-Arg-Phe-Lys-NH2 or D-Arg-2′,6′-Dmt-Lys-Phe-NH2) for approximately 6 weeks. The results are shown in FIG. 26 and indicate that treatment with D-Arg-2′,6′-Dmt-Lys-Phe-NH2 prevented the compensatory retinal neovascularization. As such, the aromatic-cationic peptides of the invention are useful in methods of preventing proliferative diabetic retinopathy in mammalian subjects."}, "GTM cells": {"tested_on": "GTM cells", "assay": "Mitochondrial membrane potential of GTM cells exposed to H2O2 (TMRM, confocal microscopy / flow cytometry)", "format": "cell-based, human", "text": "as §1, §2\nThe morphology of GTM cells was investigated when those cells were exposed to D-Arg-2′,6′-Dmt-Lys-Phe-NH2 prior to administration of hydrogen peroxide. […] That is, hydrogen peroxide mediated cell loss and rounding was diminished in cells exposed to D-Arg-2′,6′-Dmt-Lys-Phe-NH2 peptide. The mitochondrial membrane potential (Δψm) of HTM and GTM cells was also investigated when those cells were exposed to D-Arg-2′,6′-Dmt-Lys-Phe-NH2 prior to administration of hydrogen peroxide. The mitochondrial membrane potential was measured using confocal microscopy of cells labeled with tetramethylrhodamine methyl ester (TMRM, 500 nM×30 min) (FIG. 19-21). […] As such, D-Arg-2′,6′-Dmt-Lys-Phe-NH2 provides a protective effect against oxidative stress in GTM cells."}, "[1]": {"tested_on": "human retinal epithelial cells (HREC)", "assay": "Survival of HRECs in high glucose (Annexin V/PI, flow cytometry)", "format": "cell-based", "conditions": "for survival ratio for HRECs (Q3): 24 hours", "text": "Methods of HREC culture useful in the studies of the present invention are known. See generally, Li B, Tang S B, Zhang G, Chen J H, Li B J. Culture and characterization of human retinal capillary endothelial cell. Chin Ophthal Res 2005; 23: 20-2; Premanand C, Rema M, Sameer M Z, Sujatha M, Balasubramanyam M. Effect of curcumin on proliferation of human retinal endothelial cells under in vitro conditions. Invest Ophthalmol Vis Sci 2006; 47: 2179-84.\nBriefly, HREC cells were divided into three groups: a normal control group; a group administered 30 mM glucose; and a group administered 30 mM glucose+D-Arg-2′,6′-Dmt-Lys-Phe-NH2. Survival of HRECs in high glucose co-treated with different concentrations of D-Arg-2′,6′-Dmt-Lys-Phe-NH2 (10 nM, 100 nM, 1 μM, 10 μM) was measured using an Annexin V+PI assay and flow cytometry. See generally, Koopman, G., Reutelingsperger, C. P., Kuijten, G. A. M., Keehnen, R. M. J., Pals, S. T., and van Oers, M. H. J. 1994. Annexin V for flow cytometric detection of phosphatidylserine expression on B cells undergoing apoptosis. Blood 84: 1415; Homburg, C. H., de Haas, M., von dem Borne, A. E., Verhoeven, A. J., Reutelingsperger, C. P., and Roos, D. 1995. Human neutrophils lose their surface Fc gamma RIII and acquire Annexin V binding sites during apoptosis in vitro. Blood 85: 532; Vermes, I., Haanen, C., Steffens-Nakken, H., and Reutelingsperger, C. 1995. A novel assay for apoptosis—flow cytometric detection of phosphatidylserine expression on early apoptotic cells using fluorescein labelled Annexin V. J. Immunol. Meth. 184: 39; Fadok, V. A., Voelker, D. R., Campbell, P. A., Cohen, J. J., Bratton, D. L., and Henson, P. M. 1992. Exposure of phosphatidylserine on the surface of apoptotic lymphocytes triggers specific recognition and removal by macrophages. J. Immunol. 148: 2207.\nThe survival of HRECs in high glucose co-treated with D-Arg-2′,6′-Dmt-Lys-Phe-NH2 was tested at 24 h and 48 h."}, "[2]": {"tested_on": "cytochrome c release in HRECs", "assay": "Cytochrome c release from mitochondria of HRECs (confocal microscopy, Western blot)", "format": "cell-based, human", "conditions": "30 mmol/L glucose; 24 h or 48 h", "text": "Glucose (30 mmol/L) induced cytochrome c release from the mitochondria of HRECs. Fixed HRECs were immunolabeled with a cytochrome c antibody and a mitochondrial specific protein antibody (HSP60)."}}}
{"substance": "D-Arg-2′,6′-Dmt-Lys-Phe-NH2", "values": [{"measurement": "percentage of TMRM fluorescence intensity compared to control", "setting": "HTM cells; 10^−6M", "value": "57.7±1.80", "unit": "%"}, {"measurement": "percentage of TMRM fluorescence intensity compared to control", "setting": "HTM cells; 10^−7M", "value": "50.6±3.06", "unit": "%"}, {"measurement": "percentage of TMRM fluorescence intensity compared to control", "setting": "HTM cells; 10^−8M", "value": "49.4±2.27", "unit": "%"}, {"measurement": "avascular area", "setting": "OIR mouse model; OIR mouse model (FIG. 26)", "value": "reduced"}, {"measurement": "compensatory retinal neovascularization", "setting": "OIR mouse model; OIR mouse pups", "value": "prevented"}, {"measurement": "decrease in mitochondrial potential (Δψm) elicited by H2O2", "setting": "GTM cells; GTM cells, co-treatment, 200 μM H2O2, confocal", "value": "dose-dependently inhibited the decrease"}, {"measurement": "loss of mitochondrial membrane potential caused by H2O2", "setting": "GTM cells; GTM cells, co-treatment, 400 μM H2O2, dose-dependent, confocal", "value": "reduced the loss"}, {"measurement": "mitochondrial membrane potential", "setting": "GTM cells; cells exposed to hydrogen peroxide prior to administration of peptide (Group A)", "value": "improves"}, {"measurement": "mitochondrial membrane potential", "setting": "GTM cells; pre-treatment with peptide before hydrogen peroxide (Group B)", "value": "dose-dependently improves"}, {"measurement": "survival ratio for HRECs (Q3)", "setting": "[1]; 10 nM co-treatment with 30 mM glucose", "value": 84.3, "unit": "%"}, {"measurement": "survival ratio for HRECs (Q3)", "setting": "[1]; 100 nM co-treatment with 30 mM glucose", "value": 90.7, "unit": "%"}, {"measurement": "survival ratio for HRECs (Q3)", "setting": "[1]; 1 μM co-treatment with 30 mM glucose", "value": 92.8, "unit": "%"}, {"measurement": "survival ratio for HRECs (Q3)", "setting": "[1]; 10 μM co-treatment with 30 mM glucose", "value": 94.3, "unit": "%"}, {"measurement": "survival of HRECs in high glucose", "setting": "[1]; co-treatment, tested at 24 h and 48 h", "value": "significantly improved"}, {"measurement": "translocation of cytochrome c between mitochondria and cytoplasm", "setting": "[2]", "value": "decrease"}]}
